Data published in ChEMBL document CHEMBL5465560, “Selectivity Literature for EUbOPEN Chemogenomic Library” (2024).

Key:
[1] = target: T1, Serine/threonine-protein kinase D3 (Homo sapiens) (UniProt O94806); experiment: Selectivity interaction (KinomeScan (DiscoverX)) EUB0000695a PRKD3; conditions: at 100 nM
T1 sequence (whole entry): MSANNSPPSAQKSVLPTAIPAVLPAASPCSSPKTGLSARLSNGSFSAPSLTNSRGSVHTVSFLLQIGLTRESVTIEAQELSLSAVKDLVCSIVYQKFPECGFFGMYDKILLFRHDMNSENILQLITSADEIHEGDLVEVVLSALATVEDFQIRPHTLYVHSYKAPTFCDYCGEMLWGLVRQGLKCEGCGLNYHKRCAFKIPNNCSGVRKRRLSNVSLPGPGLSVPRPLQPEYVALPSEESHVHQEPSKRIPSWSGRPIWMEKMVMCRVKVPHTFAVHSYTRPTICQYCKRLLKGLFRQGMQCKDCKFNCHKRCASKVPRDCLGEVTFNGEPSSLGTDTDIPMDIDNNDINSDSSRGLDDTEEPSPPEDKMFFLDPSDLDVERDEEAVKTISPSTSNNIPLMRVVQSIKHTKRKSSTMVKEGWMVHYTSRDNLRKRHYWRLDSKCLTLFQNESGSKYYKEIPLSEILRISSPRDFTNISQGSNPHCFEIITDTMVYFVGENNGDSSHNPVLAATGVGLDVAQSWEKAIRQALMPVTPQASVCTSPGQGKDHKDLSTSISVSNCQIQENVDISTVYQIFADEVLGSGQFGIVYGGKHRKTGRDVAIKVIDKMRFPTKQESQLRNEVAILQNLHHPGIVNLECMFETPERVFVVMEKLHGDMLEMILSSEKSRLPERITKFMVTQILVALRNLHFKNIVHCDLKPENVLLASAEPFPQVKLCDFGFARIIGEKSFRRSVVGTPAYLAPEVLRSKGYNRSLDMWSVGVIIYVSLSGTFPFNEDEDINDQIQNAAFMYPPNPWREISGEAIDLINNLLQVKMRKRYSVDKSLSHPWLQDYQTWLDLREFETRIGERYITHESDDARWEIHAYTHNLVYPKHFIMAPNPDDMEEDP

[2] = target: Death-associated protein kinase 3 (Homo sapiens) (UniProt O43293); experiment: Selectivity interaction (Kinase panel (DSF assay)) EUB0001558a DAPK3
Sequence of Death-associated protein kinase 3 (Homo sapiens) (O43293 whole entry, looked up): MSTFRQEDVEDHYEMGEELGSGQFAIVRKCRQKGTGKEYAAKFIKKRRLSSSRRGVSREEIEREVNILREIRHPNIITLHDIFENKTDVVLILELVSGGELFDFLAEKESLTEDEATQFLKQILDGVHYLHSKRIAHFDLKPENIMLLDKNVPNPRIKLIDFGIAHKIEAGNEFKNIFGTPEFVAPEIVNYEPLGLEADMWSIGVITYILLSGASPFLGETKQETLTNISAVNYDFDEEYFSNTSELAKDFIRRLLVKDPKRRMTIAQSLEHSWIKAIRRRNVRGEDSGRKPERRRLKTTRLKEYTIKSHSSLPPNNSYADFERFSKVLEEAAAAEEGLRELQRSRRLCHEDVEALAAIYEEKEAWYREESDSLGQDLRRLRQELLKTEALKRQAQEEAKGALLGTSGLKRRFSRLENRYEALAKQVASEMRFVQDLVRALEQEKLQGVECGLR

[3] = target: Cyclin-dependent kinase 16 (Homo sapiens) (UniProt Q00536); experiment: Selectivity interaction (KinomeScan (DiscoverX)) EUB0000655a CDK16; conditions: at 10 µM
Sequence of Cyclin-dependent kinase 16 (Homo sapiens) (Q00536 whole entry): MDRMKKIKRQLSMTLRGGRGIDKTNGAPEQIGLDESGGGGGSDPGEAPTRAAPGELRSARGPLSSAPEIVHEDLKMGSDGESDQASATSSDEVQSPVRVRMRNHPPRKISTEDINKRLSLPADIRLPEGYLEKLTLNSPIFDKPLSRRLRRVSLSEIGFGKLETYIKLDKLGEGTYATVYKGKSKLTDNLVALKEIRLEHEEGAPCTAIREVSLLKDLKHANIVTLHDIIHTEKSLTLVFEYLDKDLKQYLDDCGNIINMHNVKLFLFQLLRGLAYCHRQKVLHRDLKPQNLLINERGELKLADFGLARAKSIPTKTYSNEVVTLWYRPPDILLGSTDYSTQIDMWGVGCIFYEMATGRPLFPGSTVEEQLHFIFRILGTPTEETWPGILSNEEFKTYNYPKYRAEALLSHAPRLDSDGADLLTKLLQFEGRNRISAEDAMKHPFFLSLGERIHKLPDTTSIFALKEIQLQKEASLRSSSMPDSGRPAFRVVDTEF

[4] = target: Ephrin type-A receptor 7 (Homo sapiens) (UniProt Q15375); experiment: Selectivity interaction (KinomeScan (DiscoverX)) EUB0000655a EPHA7; conditions: at 10 µM
Sequence of Ephrin type-A receptor 7 (Homo sapiens) (Q15375 28-998 limits assumed): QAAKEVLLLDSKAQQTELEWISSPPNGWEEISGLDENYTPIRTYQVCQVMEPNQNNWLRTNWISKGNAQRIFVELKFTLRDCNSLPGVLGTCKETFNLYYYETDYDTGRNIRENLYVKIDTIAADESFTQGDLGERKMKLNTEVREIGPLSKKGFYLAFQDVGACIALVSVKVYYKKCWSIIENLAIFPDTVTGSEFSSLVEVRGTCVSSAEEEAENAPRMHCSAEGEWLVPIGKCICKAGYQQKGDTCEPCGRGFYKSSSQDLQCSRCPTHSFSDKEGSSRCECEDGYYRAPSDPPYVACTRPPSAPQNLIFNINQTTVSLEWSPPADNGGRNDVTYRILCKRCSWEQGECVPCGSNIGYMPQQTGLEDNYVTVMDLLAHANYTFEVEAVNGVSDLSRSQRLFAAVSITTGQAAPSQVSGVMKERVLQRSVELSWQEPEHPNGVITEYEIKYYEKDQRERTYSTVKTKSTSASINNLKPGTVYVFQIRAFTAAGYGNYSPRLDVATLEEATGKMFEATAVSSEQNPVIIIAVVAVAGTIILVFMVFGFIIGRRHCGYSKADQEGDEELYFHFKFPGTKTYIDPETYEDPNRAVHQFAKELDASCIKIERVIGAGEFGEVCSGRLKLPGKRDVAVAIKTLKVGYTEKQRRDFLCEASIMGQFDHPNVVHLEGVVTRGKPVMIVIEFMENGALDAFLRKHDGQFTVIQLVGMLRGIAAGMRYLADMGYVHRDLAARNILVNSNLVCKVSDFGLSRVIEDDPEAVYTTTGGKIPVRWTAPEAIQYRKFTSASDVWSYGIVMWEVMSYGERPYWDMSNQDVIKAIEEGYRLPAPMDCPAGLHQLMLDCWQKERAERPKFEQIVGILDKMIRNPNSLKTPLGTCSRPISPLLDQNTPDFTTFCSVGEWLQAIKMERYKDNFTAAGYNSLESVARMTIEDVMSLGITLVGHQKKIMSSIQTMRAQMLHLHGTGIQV

[5] = target: T2, Serine/threonine-protein kinase DCLK3 (Homo sapiens) (UniProt Q9C098); experiment: Selectivity interaction (KinomeScan (DiscoverX)) EUB0001079a DCLK3; conditions: at 1 µM
T2 sequence (whole entry): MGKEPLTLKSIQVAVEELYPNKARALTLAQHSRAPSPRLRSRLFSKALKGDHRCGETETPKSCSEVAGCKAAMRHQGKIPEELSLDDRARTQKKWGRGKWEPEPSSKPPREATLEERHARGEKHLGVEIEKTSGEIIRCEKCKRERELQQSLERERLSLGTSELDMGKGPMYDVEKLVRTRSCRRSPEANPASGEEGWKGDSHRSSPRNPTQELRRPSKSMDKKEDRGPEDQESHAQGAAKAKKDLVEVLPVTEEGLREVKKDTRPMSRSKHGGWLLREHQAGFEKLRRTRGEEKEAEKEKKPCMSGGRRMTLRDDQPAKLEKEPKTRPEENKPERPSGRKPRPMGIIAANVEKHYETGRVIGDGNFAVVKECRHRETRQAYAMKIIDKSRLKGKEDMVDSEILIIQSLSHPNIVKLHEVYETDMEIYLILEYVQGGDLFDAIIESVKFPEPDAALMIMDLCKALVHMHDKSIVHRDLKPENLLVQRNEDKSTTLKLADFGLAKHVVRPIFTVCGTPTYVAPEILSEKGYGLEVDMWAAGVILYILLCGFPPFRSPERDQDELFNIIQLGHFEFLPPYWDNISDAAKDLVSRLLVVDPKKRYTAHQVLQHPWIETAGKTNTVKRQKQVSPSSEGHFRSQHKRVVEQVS

[6] = target: Serine/threonine-protein kinase tousled-like 2 (Homo sapiens) (UniProt Q86UE8); experiment: Selectivity interaction (KinomeScan (DiscoverX)) EUB0001079a TLK2; conditions: at 1 µM
Sequence of Serine/threonine-protein kinase tousled-like 2 (Homo sapiens) (Q86UE8 whole entry, looked up): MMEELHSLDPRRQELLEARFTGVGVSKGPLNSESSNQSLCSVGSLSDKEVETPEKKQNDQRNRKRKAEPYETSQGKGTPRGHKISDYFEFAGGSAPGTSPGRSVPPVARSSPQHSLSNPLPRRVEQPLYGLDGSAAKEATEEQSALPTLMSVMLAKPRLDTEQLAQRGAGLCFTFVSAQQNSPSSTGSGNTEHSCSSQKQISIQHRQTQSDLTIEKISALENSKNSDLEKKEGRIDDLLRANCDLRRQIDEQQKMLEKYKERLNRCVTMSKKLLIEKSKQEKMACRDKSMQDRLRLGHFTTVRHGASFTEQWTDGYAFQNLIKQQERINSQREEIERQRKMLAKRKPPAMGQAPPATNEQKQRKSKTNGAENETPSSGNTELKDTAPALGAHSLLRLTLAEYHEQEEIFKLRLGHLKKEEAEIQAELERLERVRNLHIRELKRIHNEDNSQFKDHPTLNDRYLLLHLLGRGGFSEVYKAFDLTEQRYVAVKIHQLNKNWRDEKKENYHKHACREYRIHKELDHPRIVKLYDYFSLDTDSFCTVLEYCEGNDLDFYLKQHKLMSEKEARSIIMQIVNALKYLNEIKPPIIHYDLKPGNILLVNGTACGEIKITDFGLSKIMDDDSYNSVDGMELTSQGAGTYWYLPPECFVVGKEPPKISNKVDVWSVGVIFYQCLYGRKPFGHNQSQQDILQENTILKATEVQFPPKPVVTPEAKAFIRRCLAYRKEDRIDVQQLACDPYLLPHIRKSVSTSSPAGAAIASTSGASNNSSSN

[7] = target: Serine/threonine-protein kinase PAK 6 (Homo sapiens) (UniProt Q9NQU5); experiment: Selectivity interaction (KinomeScan (DiscoverX)) EUB0000229b PAK6; conditions: at 10 µM
Sequence of Serine/threonine-protein kinase PAK 6 (Homo sapiens) (Q9NQU5 whole entry, looked up): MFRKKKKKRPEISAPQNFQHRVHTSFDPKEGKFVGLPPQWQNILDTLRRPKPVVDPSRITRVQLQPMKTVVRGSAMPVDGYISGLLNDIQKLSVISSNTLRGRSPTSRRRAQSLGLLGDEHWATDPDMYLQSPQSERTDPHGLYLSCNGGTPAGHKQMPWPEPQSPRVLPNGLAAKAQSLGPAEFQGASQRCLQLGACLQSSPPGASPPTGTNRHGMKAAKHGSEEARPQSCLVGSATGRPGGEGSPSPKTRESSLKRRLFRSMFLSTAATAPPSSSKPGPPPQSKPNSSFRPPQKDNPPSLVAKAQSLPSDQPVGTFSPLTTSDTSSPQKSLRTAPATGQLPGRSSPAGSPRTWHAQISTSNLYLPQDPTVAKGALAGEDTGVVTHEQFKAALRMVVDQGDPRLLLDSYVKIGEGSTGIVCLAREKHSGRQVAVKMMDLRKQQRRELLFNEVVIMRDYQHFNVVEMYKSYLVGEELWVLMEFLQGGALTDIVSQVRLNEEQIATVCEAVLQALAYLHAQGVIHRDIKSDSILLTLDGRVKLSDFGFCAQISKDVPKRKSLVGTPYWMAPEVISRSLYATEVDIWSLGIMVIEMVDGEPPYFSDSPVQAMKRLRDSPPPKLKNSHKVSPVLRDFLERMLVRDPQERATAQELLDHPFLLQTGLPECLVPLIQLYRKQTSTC

[8] = target: T3, Muscle, skeletal receptor tyrosine-protein kinase (Homo sapiens) (UniProt O15146); conditions: at 10 µM
T3 sequence (whole entry): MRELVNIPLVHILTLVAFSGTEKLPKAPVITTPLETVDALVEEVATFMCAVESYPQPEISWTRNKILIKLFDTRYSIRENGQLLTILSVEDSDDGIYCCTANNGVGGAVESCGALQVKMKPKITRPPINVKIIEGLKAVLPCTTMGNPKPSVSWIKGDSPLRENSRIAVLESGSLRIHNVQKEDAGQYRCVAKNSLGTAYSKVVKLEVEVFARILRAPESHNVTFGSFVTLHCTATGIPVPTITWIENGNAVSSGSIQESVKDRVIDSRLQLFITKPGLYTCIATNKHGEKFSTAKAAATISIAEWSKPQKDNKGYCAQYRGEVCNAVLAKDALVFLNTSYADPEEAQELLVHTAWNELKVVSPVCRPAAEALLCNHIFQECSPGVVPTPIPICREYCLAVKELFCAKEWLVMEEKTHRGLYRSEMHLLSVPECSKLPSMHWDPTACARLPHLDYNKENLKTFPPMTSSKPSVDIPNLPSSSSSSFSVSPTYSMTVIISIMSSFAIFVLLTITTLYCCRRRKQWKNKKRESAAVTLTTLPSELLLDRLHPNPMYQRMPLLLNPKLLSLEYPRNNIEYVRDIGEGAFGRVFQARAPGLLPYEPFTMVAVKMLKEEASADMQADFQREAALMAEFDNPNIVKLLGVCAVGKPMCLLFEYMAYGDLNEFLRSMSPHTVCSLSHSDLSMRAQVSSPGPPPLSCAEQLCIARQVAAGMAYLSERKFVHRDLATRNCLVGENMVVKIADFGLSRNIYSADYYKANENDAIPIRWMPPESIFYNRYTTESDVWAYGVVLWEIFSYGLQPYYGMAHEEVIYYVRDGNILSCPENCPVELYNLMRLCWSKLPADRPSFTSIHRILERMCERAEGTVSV

For `Cc1cc(F)c(C(=O)Nc2cccc(-c3nncn3C(C)C)n2)cc1-n1cnc(C2CC2)c1`, which % of control [1] is on record?
Its % of control is 78%.

How did the dTM [2] turn out when `CC(C)(O)[C@H](F)CN1Cc2cc(NC(=O)c3cnn4cccnc34)c(N3CCOCC3)cc2C1=O` was run?
The dTM was 1.8 K.

For `CN(C)CCOc1ccc(-c2nc(-c3ccncc3)c(-c3ccc4c(c3)CC/C4=N\O)[nH]2)cc1`, which % of control [3] is on record?
Its % of control is 100%.

What about the % of control [4] of the same molecule?
Its % of control is 100%.

Which % of control [5] does the source give for `Nc1cnc(N2CCc3cc(S(=O)(=O)Nc4c(F)cc(Cl)cc4F)cc(N4CCCC4=O)c32)nc1` [TP-020n] here?
The % of control was 85%.

What about the % of control [6] of the same molecule?
Its % of control is 79%.

For `COc1cc(N(C)c2ccnc3ccc(C(F)(F)F)cc23)cc(OC)c1OC`, which % binding [7] is on record?
Its % binding is 91%.

How did the % of control [8] turn out when `Cc1cc([C@@H](C)Nc2ccccc2C(=O)O)c2nc(N3CCOCC3)cc(=O)n2c1` [AZD-6482] was run?
Its % of control is 100%.
